The nature of data set [1]: Molar enthalpy of transition or fusion. As to conditions: Crystal; Adiabatic calorimetry.
For data set [2] the following is noted: Crystal; Adiabatic calorimetry.

Numbers after ± are expanded uncertainties.

This note sets out measurements from the NIST ThermoML archive (doi:10.1016/j.jct.2007.02.009).

`CN(C)C=O` [dimethylformamide]: the “Molar enthalpy of transition or fusion” value in data set [1] was 2.14 ± 0.0311 kcal/mol. Further, in data set [2], the Triple point temperature turned out to be 212.86 ± 0.11 K.
